Laboratory results: patent US20210045385A1, “PYRIDAZINONE-SUBSTITUTED KETOXIMES AS HERBICIDES” (FMC Corporation, priority 2018, published 2021)

How the values were obtained:
Type in all cases: in vivo
[1] = tested on: Italian ryegrass (Lolium mutiflorum); experiment: Test C preemergence, visual plant response rating; conditions: Test C, 0 is no effect, 100 is complete control
Outline: (§1)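 Seeds sown in a loam–sand blend got a directed preemergence soil spray; postemergence plants (2–10 cm, one- to two-leaf stage) were sprayed with compound in a non-phytotoxic solvent plus surfactant. Injury was scored visually against untreated controls after about 10 d in a greenhouse on a 0–100 scale (100 = complete control).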

[2] = tested on: barnyardgrass (Echinochloa crus-galli); experiment: Test C preemergence, visual plant response rating; conditions: Test C, 0 is no effect, 100 is complete control
Outline: as §1

[3] = tested on: foxtail, giant (giant foxtail, Setaria faberi); experiment: Test C preemergence, visual plant response rating; conditions: Test C, 0 is no effect, 100 is complete control
Outline: as §1

kochia (Bassia scoparia) [4] = experiment: Test C preemergence, visual plant response rating; conditions: Test C, 0 is no effect, 100 is complete control
Outline: as §1

[5] = tested on: pigweed (Amaranthus retroflexus); experiment: Test C preemergence, visual plant response rating; conditions: Test C, 0 is no effect, 100 is complete control
Outline: as §1

[6] = tested on: ragweed (common ragweed, Ambrosia artemisiifolia); experiment: Test C preemergence, visual plant response rating; conditions: Test C, 0 is no effect, 100 is complete control
Outline: as §1

[7] = tested on: Italian ryegrass (Lolium mutiflorum); experiment: Test C postemergence, visual plant response rating
Outline: as §1

[8] = tested on: barnyardgrass (Echinochloa crus-galli); experiment: Test C postemergence, visual plant response rating
Outline: as §1

[9] = tested on: blackgrass (Alopecurus myosuroides); experiment: Test C postemergence, visual plant response rating
Outline: as §1

corn (Zea mays) = experiment: Test C postemergence, visual plant response rating
Outline: as §1

[10] = tested on: foxtail, giant (giant foxtail, Setaria faberi); experiment: Test C postemergence, visual plant response rating
Outline: as §1

[11] = tested on: galium (catchweed bedstraw, Galium aparine); experiment: Test C postemergence, visual plant response rating
Outline: as §1

kochia (Bassia scoparia) [12] = experiment: Test C postemergence, visual plant response rating
Outline: as §1

[13] = tested on: pigweed (Amaranthus retroflexus); experiment: Test C postemergence, visual plant response rating
Outline: as §1

[14] = tested on: ragweed (common ragweed, Ambrosia artemisiifolia); experiment: Test C postemergence, visual plant response rating
Outline: as §1

[15] = tested on: wheat (Triticum aestivum); experiment: Test C postemergence, visual plant response rating
Outline: as §1

[16] = tested on: barnyardgrass (Echinochloa crus-galli); experiment: Test D flooded paddy test, visual plant response rating; conditions: 250 g ai/ha, scale 0 to 100 (0 no effect, 100 complete control), 13 to 15 d
Outline: (§2)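 Plants grown to the 2-leaf stage; pots flooded to 3 cm above soil and compound applied directly into paddy water, depth held throughout. Kept in greenhouse 13 to 15 d, then rated visually against untreated controls on a 0–100 scale (0 no effect, 100 complete control).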

[17] = tested on: duck salad (Heteranthera limosa); experiment: as above; conditions: 250 g ai/ha, scale 0 to 100 (0 no effect, 100 complete control), 13 to 15 d
Outline: as §2

rice (Oryza sativa) = experiment: as above; conditions: 250 g ai/ha, scale 0 to 100 (0 no effect, 100 complete control), 13 to 15 d
Outline: as §2

[18] = tested on: sedge umbrella (small-flower umbrella sedge, Cyperus difformis); experiment: as above; conditions: 250 g ai/ha, scale 0 to 100 (0 no effect, 100 complete control), 13 to 15 d
Outline: as §2

[19] = Test C, postemergence, 125 g ai/ha

| Compound | Ryegrass, Italian plant response rating (0 to 100 scale) ([1]; 31 g ai/ha) | Ryegrass, Italian plant response rating (0 to 100 scale) ([1]; 125 g ai/ha) | Barnyardgrass plant response rating (0 to 100 scale) ([2]; 31 g ai/ha) | Barnyardgrass plant response rating (0 to 100 scale) ([2]; 125 g ai/ha) | Foxtail, Giant plant response rating (0 to 100 scale) ([3]; 31 g ai/ha) | Foxtail, Giant plant response rating (0 to 100 scale) ([3]; 125 g ai/ha) | Kochia plant response rating (0 to 100 scale) (kochia (Bassia scoparia) [4]; 31 g ai/ha) | Kochia plant response rating (0 to 100 scale) (kochia (Bassia scoparia) [4]; 125 g ai/ha) | Pigweed plant response rating (0 to 100 scale) ([5]; 31 g ai/ha) | Pigweed plant response rating (0 to 100 scale) ([5]; 125 g ai/ha) | Ragweed plant response rating (0 to 100 scale) ([6]; 31 g ai/ha) | Ragweed plant response rating (0 to 100 scale) ([6]; 125 g ai/ha) | Ryegrass, Italian plant response rating (0 to 100 scale) ([7]; Postemergence, 31 g ai/ha) | Ryegrass, Italian plant response rating (0 to 100 scale) [7, 19] | Barnyardgrass plant response rating (0 to 100 scale) ([8]; Postemergence, 31 g ai/ha) | Barnyardgrass plant response rating (0 to 100 scale) [8, 19] | Blackgrass plant response rating (0 to 100 scale) ([9]; Postemergence, 31 g ai/ha) | Blackgrass plant response rating (0 to 100 scale) [9, 19] | Corn plant response rating (0 to 100 scale) (corn (Zea mays); Postemergence, 31 g ai/ha) | Corn plant response rating (0 to 100 scale) (corn (Zea mays); [19]) | other results |
| --- | --- | --- | --- | --- | --- | --- | --- | --- | --- | --- | --- | --- | --- | --- | --- | --- | --- | --- | --- | --- | --- |
| CCO/N=C(\c1c(O)c(C)nn(C)c1=O)c1cccc2cc(Cl)ccc12 [Compound 273] | 0 | 40 | 40 | 80 | 80 | 90 | 0 | 40 | 90 | 90 | 20 | 20 | 10 | 60 | 40 | 80 | 80 | 90 | 0 | 30 | Foxtail, Giant plant response rating (0 to 100 scale) ([10]; Postemergence, 31 g ai/ha): 100; Foxtail, Giant plant response rating (0 to 100 scale) [10, 19]: 100; Galium plant response rating (0 to 100 scale) ([11]; Postemergence, 31 g ai/ha): 100; Galium plant response rating (0 to 100 scale) [11, 19]: 100; Kochia plant response rating (0 to 100 scale) (kochia (Bassia scoparia) [12]; Postemergence, 31 g ai/ha): 40; Kochia plant response rating (0 to 100 scale) (kochia (Bassia scoparia) [12]; [19]): 60; Pigweed plant response rating (0 to 100 scale) ([13]; Postemergence, 31 g ai/ha): 90; Pigweed plant response rating (0 to 100 scale) [13, 19]: 100; Ragweed plant response rating (0 to 100 scale) ([14]; Postemergence, 31 g ai/ha): 90; Ragweed plant response rating (0 to 100 scale) [14, 19]: 100; Wheat plant response rating (0 to 100 scale) ([15]; Postemergence, 31 g ai/ha): 0; Wheat plant response rating (0 to 100 scale) [15, 19]: 0; Plant response rating, Barnyardgrass (Flood) [16]: 90; Plant response rating, Ducksalad (Flood) [17]: 95; Plant response rating, Rice (Flood) (rice (Oryza sativa)): 85; Plant response rating, Sedge, Umbrella (Flood) [18]: 95 |
| C#CCO/N=C(/c1cccc(Br)c1)c1c(O)c(C)nn(C)c1=O [Compound 277] | 10 | 100 | 0 | 30 | 10 | 30 | 0 | 90 | 10 | 70 | 20 | 80 | 40 | 70 | 20 | 60 | 30 | 80 | 10 | 30 | Foxtail, Giant plant response rating (0 to 100 scale) ([10]; Postemergence, 31 g ai/ha): 10; Foxtail, Giant plant response rating (0 to 100 scale) [10, 19]: 60; Galium plant response rating (0 to 100 scale) ([11]; Postemergence, 31 g ai/ha): 70; Galium plant response rating (0 to 100 scale) [11, 19]: 80; Kochia plant response rating (0 to 100 scale) (kochia (Bassia scoparia) [12]; Postemergence, 31 g ai/ha): 50; Kochia plant response rating (0 to 100 scale) (kochia (Bassia scoparia) [12]; [19]): 70; Pigweed plant response rating (0 to 100 scale) ([13]; Postemergence, 31 g ai/ha): 40; Pigweed plant response rating (0 to 100 scale) [13, 19]: 60; Ragweed plant response rating (0 to 100 scale) ([14]; Postemergence, 31 g ai/ha): 40; Ragweed plant response rating (0 to 100 scale) [14, 19]: 90; Wheat plant response rating (0 to 100 scale) ([15]; Postemergence, 31 g ai/ha): 30; Wheat plant response rating (0 to 100 scale) [15, 19]: 70; Plant response rating, Barnyardgrass (Flood) [16]: 0; Plant response rating, Ducksalad (Flood) [17]: 0; Plant response rating, Rice (Flood) (rice (Oryza sativa)): 0; Plant response rating, Sedge, Umbrella (Flood) [18]: 0 |
| C#CCO/N=C(\c1cccc(Br)c1)c1c(O)c(C)nn(C)c1=O [Compound 278] | 20 | 100 | 0 | 20 | 30 | 60 | 0 | 70 | 0 | 0 | 10 | 40 | 70 | 80 | 40 | 50 | 50 | 90 | 0 | 20 | Foxtail, Giant plant response rating (0 to 100 scale) ([10]; Postemergence, 31 g ai/ha): 30; Foxtail, Giant plant response rating (0 to 100 scale) [10, 19]: 70; Galium plant response rating (0 to 100 scale) ([11]; Postemergence, 31 g ai/ha): 80; Galium plant response rating (0 to 100 scale) [11, 19]: 90; Kochia plant response rating (0 to 100 scale) (kochia (Bassia scoparia) [12]; Postemergence, 31 g ai/ha): 40; Kochia plant response rating (0 to 100 scale) (kochia (Bassia scoparia) [12]; [19]): 80; Pigweed plant response rating (0 to 100 scale) ([13]; Postemergence, 31 g ai/ha): 30; Pigweed plant response rating (0 to 100 scale) [13, 19]: 70; Ragweed plant response rating (0 to 100 scale) ([14]; Postemergence, 31 g ai/ha): 60; Ragweed plant response rating (0 to 100 scale) [14, 19]: 80; Wheat plant response rating (0 to 100 scale) ([15]; Postemergence, 31 g ai/ha): 40; Wheat plant response rating (0 to 100 scale) [15, 19]: 80; Plant response rating, Barnyardgrass (Flood) [16]: 0; Plant response rating, Ducksalad (Flood) [17]: 0; Plant response rating, Rice (Flood) (rice (Oryza sativa)): 0; Plant response rating, Sedge, Umbrella (Flood) [18]: 0 |
| CO/N=C(\c1c(O)c(C)nn(C)c1=O)c1cc(SC)cc2ccccc12 [Compound 279] | 0 | 0 | 0 | 0 | 0 | 0 | 0 | 0 | 0 | 0 | 0 | 0 | 0 | 0 | 0 | 0 | 0 | 0 | 0 | 0 | Foxtail, Giant plant response rating (0 to 100 scale) ([10]; Postemergence, 31 g ai/ha): 0; Foxtail, Giant plant response rating (0 to 100 scale) [10, 19]: 0; Galium plant response rating (0 to 100 scale) ([11]; Postemergence, 31 g ai/ha): 0; Galium plant response rating (0 to 100 scale) [11, 19]: 0; Kochia plant response rating (0 to 100 scale) (kochia (Bassia scoparia) [12]; Postemergence, 31 g ai/ha): 0; Kochia plant response rating (0 to 100 scale) (kochia (Bassia scoparia) [12]; [19]): 30; Pigweed plant response rating (0 to 100 scale) ([13]; Postemergence, 31 g ai/ha): 0; Pigweed plant response rating (0 to 100 scale) [13, 19]: 10; Ragweed plant response rating (0 to 100 scale) ([14]; Postemergence, 31 g ai/ha): 0; Ragweed plant response rating (0 to 100 scale) [14, 19]: 10; Wheat plant response rating (0 to 100 scale) ([15]; Postemergence, 31 g ai/ha): 0; Wheat plant response rating (0 to 100 scale) [15, 19]: 0; Plant response rating, Barnyardgrass (Flood) [16]: 0; Plant response rating, Ducksalad (Flood) [17]: 0; Plant response rating, Rice (Flood) (rice (Oryza sativa)): 0; Plant response rating, Sedge, Umbrella (Flood) [18]: 0 |
